# Data: patent US11505521B2 (Biothea Pharma, Inc., priority 2018, dated 2022)
# Structures can show the parent of a compound that is named as a salt. Where two headings read alike, the source gives them in different places.
# Experiments:
# [1] = sublingual tablet of Example 3, 10 mg epinephrine base, receptor pH 7.4, 37° C.
# Method: The in-vitro permeability of the pharmaceutical compositions of Example 3 were tested. The tests were conducted using drug transdermal diffusion test instruments (Brand Huanghai, Model No. RJY-6B), Sartorius balances (Model SQP), an INESA pH meter (Model PHS-3E), a Thermo HPLC (UltiMate 3000 System, UV Wavelength: 205 nm), and Phenomenex Luna columns (5 μm C18 (2), 4.6×250 mm). The column temperature was 40° C. and the autosampler temperature was room temperature. The injection volume was 5 μL.
# (§1) Mobile Phase A was prepared by weighing 4.0 g tetramethylammonium bisulfate (MERYER, Batch No. 77957139) and 1.1 sodium 1-heptasulfonate (Admas-beta, Batch No. P1343755), and transferring the materials to a flask. 2 mL of 0.1 mol/L EDTA solution (Brand: Sinopharm Chemical Reagent Co., Ltd., Batch No. 20150410) was added to the flask and the volume was adjusted to 950 mL using water. The solution was mixed and adjusted to a pH of 3.5 with 0.1N sodium hydroxide solution (Brand: Enox, Batch No. 20161201). Mobile Phase B was prepared using methanol. The isocratic elution was used in a proportion of A/B of 85/15. The run time was 10 minutes.
# The in vitro diffusion of epinephrine salts were evaluated using Franz cells with an OD of 20 mm and reservoir volume of 7 mL. Dialysis membranes (Spectra/Por® dialysis membranes with 1,000 Da MWCO) were used to simulate sublingual mucous membrane in the vitro permeability tests. The assay content of the active components was detected in receiving pools. A receptor chamber with a magnetic stirrer was filled with phosphate buffer solution (pH 7.4) as the diffusion medium. The water bath was set at 37° C., and water was circulated in the Franz cells.
# Each tablet was placed at the center of the donor chamber on the membrane at T0, and 2 mL of the artificial saliva (Brand: Biomart, Brand No. GL0305) was added to facilitate tablet disintegration and dissolution. Aliquots of 1 mL were withdrawn from the receptor chamber at 10, 30, 60, 90, and 120 min. The volumes withdrawn were replenished with fresh medium. Samples were transferred to HPLC vials for HPLC analysis.
# [2] = Method: The stability of the pharmaceutical compositions of Example 3 were tested. The stability studies were conducted on packaged epinephrine salts at 25° C./RH 60% and 40° C./RH 75% conditions, as well as samples without packaging and exposed to light (4500 Lux) for one month. The appearance, assay content, and related substances were examined at 5, 7, 14 and 30 days.
# (§2) The assay content was tested using Sartorius balances (Model SQP), an INESA pH meter (Model PHS-3E), a Thermo HPLC (UltiMate 3000 System, UV Wavelength: 205 nm), and Phenomenex Luna columns (5 μm C18 (2), 4.6×250 mm). The column temperature was 40° C., and the autosampler temperature was room temperature. The injection volume was 5 μL.
# as §1
# The assay content was analyzed by dissolving 20 mg of each sample to be examined in 50 mL of Mobile Phase A (0.4 mg/mL) as assay test solution. The sample was used and tested right after it was ready and was protected from light.
# as §2, with “purity” for “assay content”, “PhenomenexSynergi” for “Phenomenex Luna”, “(4” for “(5”, “Polar-RP 80 A 250×4.6” for “C18 (2), 4.6×250”, “30°” for “40°”
# Mobile Phase A was prepared by weighing 1.136 g of potassium dihydrogen orthophosphate (Brand: CNW, Batch No. A1040040) and 1.74 g of dipotassium hydrogen orthophosphate (Brand: Ourchem, Batch No. 20160219) and transferring into 1000 mL of water. The pH was adjusted to 3.0±0.05 with orthophosphoric acid (Brand: Ourchem, Batch No. 4112K060). The solution was filtered through a 0.45 μm membrane and degassed. Mobile Phase B was prepared using methanol. The run time was 50 minutes.
# The purity was analyzed by dissolving 10 mg of each sample to be examined in 25 mL of Mobile Phase A (0.4 mg/mL) as purity and related substance test solution. The sample was used and tested right after it was ready and was protected from light.
# [3] = physchem
# Method: (§3) The tests were conducted using Sartorius balances (Model SQP), a Thermo HPLC (UltiMate 3000 System, UV Wavelength: 205 nm), and Phenomenex Luna columns (5 μm C18 (2), 4.6×250 mm). The column temperature was 40° C. and the autosampler temperature was room temperature. The injection volume was 5 μL.
# as §1, with “using ethanol.” for “using methanol.”, “was 8” for “was 10”
# A standard solution was used comprising 10 mg of the standard dissolved in 10 mL of water. The test solution solutions were prepared and water was added at 25±2° C. Every 5 minutes, the solution was sonicated for 30 seconds. The dissolution was observed within 30 minutes to make sure the solution was saturated. The solution was filtered through a 0.45 μm membrane and the solution was diluted to test.
# [4] = 20 mg in 20 mL water, 25° C.
# Method: The tests were conducted using Sartorius balances (Model SQP) and a pH meter (Brand: INESA, Model No. PHS-3E). 20 mg of the sample was weighed and transferred into a 20 mL volumetric flask with the remainder of the volume comprising water. The solution was mixed. The pH meter was calibrated with pH 4.0 and pH 6.8 standard buffer solutions at 25° C.
# [5] = physchem; settings: titrated with 0.1 mol/L NaOH
# Method: The tests were conducted using Sartorius balances (Model SQP) and a potentiometric titrator (Brand: Methrom, Model No. 905 Titrando). 0.17 g of the sample was weighed and transferred into a 50 mL volumetric flask with the remainder of the volume comprising deonized water. The solution was mixed. The solution was titrated with a 0.1 mol/L NaOH solution using a pH indicator to indicate the end point.
# [6] = physchem; settings: n-octanol / pH 3.47 buffer
# Method: as §3
# as §1, with “using ethanol.” for “using methanol.”, “was 8” for “was 10”
# A hydrogen disodium phosphate solution was prepared by weighing 7.1 g of hydrogen disodium phosphate (Brand: Sinopharm Chemical Reagent Co., Ltd., Batch No. 20150910). A citric acid solution was prepared by weighing 5.25 g of hydrated citric acid (Brand: General-Reagent, Batch No. 5949-29-1) and dissolving it in 1000 mL of water. A pH 3.47 buffer solution was prepared by adjusting the pH of the hydrogen disodium phosphate solution to 3.47 with the citric acid solution. An n-octanol buffer solution was prepared by mixing 100 mL of n-octanol (Brand: Chinasun Specialty Products Co., Ltd., Batch No. 20160601) and 100 mL of the pH 3.47 buffer solution, vibrated for 24 hours, which sat for an hour to separate the n-octanol phase and the pH 3.47 buffer phase.
# 10 mg of the sample was dissolved in 10 mL of the saturated n-octanol solution and mixed completely. 10 mL of the saturated pH 3.47 buffer solution was added and vortexed at 3000 r/min for 1 hour. 1 mL of solution was pipetted from the n-octanol and pH 3.47 phase after an hour. A standard solution was prepared containing 1 mg/mL of the standard in diluent. An LOQ solution was prepared from about 0.1% of the standard solution. An n-octanol phase solution was diluted with 1 mL of methanol to test. The pH 3.47 phase solution was injected directly. The partition coefficient was calculated using the following formula:
# [formula] wherein Co is the equilibrium concentration of solute in oil phase, and Cw is the equilibrium concentration of solute in water phase.
# [7] = light 4500 Lux, under air, 5 days
# [8] = light 4500 Lux, under air, 7 days
# [9] = light 4500 Lux, under air, 14 days
# [10] = light 4500 Lux, under air, 30 days
compound,measurement,setting,value
"CNC[C@H](O)c1ccc(O)c(O)c1 [epinephrine base, epinephrine]",Diffusion content (%) 120 min,[1],10.5%
same,Related substance (%),"[2]; 25° C./60% RH, 0 days",0.13%
same,Content (%),"[2]; 25° C./60% RH, 5 days",100.03%
same,Related substance (%),"[2]; 25° C./60% RH, 5 days",0.14%
same,Content (%),"[2]; 25° C./60% RH, 7 days",99.73%
same,Related substance (%),"[2]; 25° C./60% RH, 7 days",0.14%
same,Content (%),"[2]; 25° C./60% RH, 14 days",99.84%
same,Related substance (%),"[2]; 25° C./60% RH, 14 days",0.12%
same,Content (%),"[2]; 25° C./60% RH, 30 days",99.78%
same,Related substance (%),"[2]; 25° C./60% RH, 30 days",0.14%
same,Related substance (%),"[2]; 40° C./75% RH, 0 days",0.13%
same,Related substance (%),"[2]; 40° C./75% RH, 5 days",0.16%
same,Content (%),"[2]; 40° C./75% RH, 7 days",100.67%
same,Related substance (%),"[2]; 40° C./75% RH, 7 days",0.15%
same,Content (%),"[2]; 40° C./75% RH, 14 days",98.97%
same,Related substance (%),"[2]; 40° C./75% RH, 14 days",0.17%
same,Content (%),"[2]; 40° C./75% RH, 30 days",100.62%
same,Related substance (%),"[2]; 40° C./75% RH, 30 days",0.20%
same,Related substance (%),"[2]; light 4500 Lux, under air, 0 days",0.13%
same,Content (%),[2]; [7],100.53%
same,Related substance (%),[2]; [7],0.15%
same,Content (%),[2]; [8],99.27%
same,Related substance (%),[2]; [8],0.18%
same,Content (%),[2]; [9],99.21%
same,Related substance (%),[2]; [9],0.18%
same,Content (%),[2]; [10],98.24%
same,Related substance (%),[2]; [10],0.21%
CNC[C@H](O)c1ccc(O)c(O)c1 [epinephrine hydrochloride],Diffusion content (%) 120 min,[1]; hydrochloride,44.0%
epinephrine fumarate,Solubility,"[3]; water, 25±2° C.",38.9 mg/mL
same,pH,[4],3.77
same,pKa,[5],4.28
same,LogP,[6],−3.00
same,Diffusion content (%) 120 min,[1],54.4%
epinephrine hemi sulfate,Solubility,[3],17.7 mg/mL
same,pH,[4],7.14
